For 21 compounds, EC50 results are on record in patent US20240228488A1 (TAKEDA PHARMACEUTICAL COMPANY LIMITED, priority 2021, published 2024).

pEC50: −log10 of the molar value.

The experiment deals with human activated kallikrein enzyme (Homo sapiens, UniProt P03952). Kind of experiment: Plasma kallikrein inhibition, fluorogenic PFR-AMC substrate, 500 pM activated kallikrein format. The experiment is classed as biochemical. The conditions noted are these: 500 pM activated kallikrein, 300 uM PFR-AMC, 30 min preincubation, 10 min reaction; read-out: Primary Dose Response Assay: Average EC50. In outline: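 Enzyme at 500 pM preincubated 30 min RT with inhibitors in 20 mM Tris pH 7.5, 1 mM EDTA, 150 mM NaCl, 0.1% PEG-400, 0.1% Triton X-100. Reaction started with 300 uM PFR-AMC, run 10 min RT; fluorescence read at 460 nm emission, 380 nm excitation. EC50 reported in ranges.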
Chain of human activated kallikrein enzyme (P03952 391-638 limits assumed): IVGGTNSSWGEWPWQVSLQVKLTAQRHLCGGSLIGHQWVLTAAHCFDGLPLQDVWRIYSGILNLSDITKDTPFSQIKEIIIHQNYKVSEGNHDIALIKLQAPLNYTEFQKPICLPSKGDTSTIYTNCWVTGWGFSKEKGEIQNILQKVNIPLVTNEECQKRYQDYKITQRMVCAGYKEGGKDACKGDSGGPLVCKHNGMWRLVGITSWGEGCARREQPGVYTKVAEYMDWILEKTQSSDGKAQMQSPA
Chain of human activated kallikrein enzyme (P03952 20-390 partner limits assumed): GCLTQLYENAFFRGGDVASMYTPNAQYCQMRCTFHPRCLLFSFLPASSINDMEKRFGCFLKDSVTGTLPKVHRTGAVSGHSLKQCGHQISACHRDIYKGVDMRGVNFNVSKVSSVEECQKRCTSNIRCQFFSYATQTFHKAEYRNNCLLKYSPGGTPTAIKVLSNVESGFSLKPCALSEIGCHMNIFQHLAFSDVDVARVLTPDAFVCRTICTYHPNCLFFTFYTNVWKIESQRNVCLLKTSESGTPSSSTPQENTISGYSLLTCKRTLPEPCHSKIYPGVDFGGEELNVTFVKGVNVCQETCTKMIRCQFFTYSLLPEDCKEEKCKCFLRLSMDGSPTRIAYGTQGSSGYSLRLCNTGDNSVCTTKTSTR
With `Cc1cc(NC(=O)[C@H]2C[C@@H]2c2nccc(C)n2)nc(N[C@H](C)c2cn3cc(C4CC4)cc(N4CC(=O)N(C)C4=O)c3n2)n1` [Example 440, (1S,2S)-N-(2-(((R)-1-(6-cyclopropyl-8-(3-methyl-2,4-dioxoimidazolidin-1-yl)imidazo[1,2-a]pyridin-2-yl)ethyl)amino)-6-methylpyrimidin-4-yl)-2-(4-methylpyrimidin-2-yl)cyclopropane-1-carboxamide], the pEC50 is greater than 9.00.
Turning to `Cc1ccnc([C@H]2C[C@@H]2C(=O)Nc2cc(N[C@H](C)c3cn4cc(C5CC5)cc(N5CC(=O)N(C)C5=O)c4n3)nc(N(C)C)n2)n1` [Example 441, (1S,2S)-N-(6-(((R)-1-(6-cyclopropyl-8-(3-methyl-2,4-dioxoimidazolidin-1-yl)imidazo[1,2-a]pyridin-2-yl)ethyl)amino)-2-(dimethylamino)pyrimidin-4-yl)-2-(4-methylpyrimidin-2-yl)cyclopropane-1-carboxamide], the pEC50 is greater than 9.00.
With `O=C(Nc1cc(N2C[C@@H](CO)C[C@@H]2c2cn3cc(C4CC4)ccc3n2)ncn1)[C@H]1C[C@@H]1c1cc(Cl)ccn1` [Example 442, (1S,2S)-2-(4-chloropyridin-2-yl)-N-(6-((2R,4S)-2-(6-cyclopropylimidazo[1,2-a]pyridin-2-yl)-4-(hydroxymethyl)pyrrolidin-1-yl)pyrimidin-4-yl)cyclopropane-1-carboxamide] the figure was 5.22 to 6.00; with `Cc1ccnc([C@H]2C[C@@H]2C(=O)Nc2cc(N[C@@H](C)c3cn4cc(C5CC5)cc(N5CC(=O)N(C)C5=O)c4n3)nc(C)n2)n1` [Example 455, (1S,2S)—N-(6S-((1-(6-cyclopropyl-8-(3-methyl-2,4-dioxoimidazolidin-1-yl)imidazo[1,2-a]pyridin-2-yl)ethyl)amino)-2-methylpyrimidin-4-yl)-2-(4-methylpyrimidin-2-yl)cyclopropane-1-carboxamide], 7.00 to 8.00; with `Cc1ccnc([C@H]2C[C@@H]2C(=O)Nc2cc(N(CC(=O)O)Cc3cn4cc(C5CC5)cc(N5CC(=O)N(C)C5=O)c4n3)ncn2)n1` [Example 461, N-((6-cyclopropyl-8-(3-methyl-2,4-dioxoimidazolidin-1-yl)imidazo[1,2-a]pyridin-2-yl)methyl)-N-(6-((1S,2S)-2-(4-methylpyrimidin-2-yl)cyclopropane-1-carboxamido)pyrimidin-4-yl)glycine], 8.00 to 9.00.
With `Cc1ccnc([C@H]2C[C@@H]2C(=O)Nc2cc(N(Cc3cn4cc(C5CC5)cc(N5CC(=O)N(C)C5=O)c4n3)C(=O)OC(C)OC(=O)C(C)C)ncn2)n1` (stereo partly drawn) [Example 467, 1-((((6-cyclopropyl-8-(3-methyl-2,4-dioxoimidazolidin-1-yl)imidazo[1,2-a]pyridin-2-yl)methyl)(6-((1S,2S)-2-(4-methylpyrimidin-2-yl)cyclopropane-1-carboxamido)pyrimidin-4-yl)carbamoyl)oxy)ethyl isobutyrate] the figure was 6.00 to 7.00; with `Cc1ccnc([C@H]2C[C@@H]2C(=O)Nc2cc(N[C@H](C)c3cn4cc(C5CC5)cc(N5CC(=O)N(C)C5=O)c4n3)nc(CCO)n2)n1` [Example 468, (1S,2S)—N-(6-(((R)-1-(6-cyclopropyl-8-(3-methyl-2,4-dioxoimidazolidin-1-yl)imidazo[1,2-a]pyridin-2-yl)ethyl)amino)-2-(2-hydroxyethyl)pyrimidin-4-yl)-2-(4-methylpyrimidin-2-yl)cyclopropane-1-carboxamide], greater than 9.00.
Turning to `Cc1ccnc([C@H]2C[C@@H]2C(=O)Nc2cc(N[C@H](C)c3cn4cc(C5CC5)cc(N5CC(=O)N(C)C5=O)c4n3)nc(CO)n2)n1` [Example 469, (1S,2S)-N-(6-(((R)-1-(6-cyclopropyl-8-(3-methyl-2,4-dioxoimidazolidin-1-yl)imidazo[1,2-a]pyridin-2-yl)ethyl)amino)-2-(hydroxymethyl)pyrimidin-4-yl)-2-(4-methylpyrimidin-2-yl)cyclopropane-1-carboxamide], the pEC50 is greater than 9.00.
For `O=C(Nc1cc(N2C[C@@H](O)[C@@H](O)[C@@H]2c2cn3cc(C4CC4)ccc3n2)ncn1)[C@H]1C[C@@H]1c1cccc(Cl)c1` [Example 483, (1S,2S)-2-(3-chlorophenyl)-N-(6-((2S,3S,4R)-2-(6-cyclopropylimidazo[1,2-a]pyridin-2-yl)-3,4-dihydroxypyrrolidin-1-yl)pyrimidin-4-yl)cyclopropane-1-carboxamide], the pEC50 was 6.00 to 7.00.
Take `O=C(Nc1cc(N2CC[C@H](O)[C@H]2c2cn3cc(C4CC4)ccc3n2)ncn1)[C@H]1C[C@@H]1c1cccc(Cl)c1` [Example 484, (1S,2S)-2-(3-chlorophenyl)-N-(6-((2R,3S)-2-(6-cyclopropylimidazo[1,2-a]pyridin-2-yl)-3-hydroxypyrrolidin-1-yl)pyrimidin-4-yl)cyclopropane-1-carboxamide]: the pEC50 is less than 5.22.
In the case of `O=C(Nc1cc(N2CC[C@@H](O)[C@@H]2c2cn3cc(C4CC4)ccc3n2)ncn1)[C@H]1C[C@@H]1c1cccc(Cl)c1` [Example 485, (1S,2S)-2-(3-chlorophenyl)-N-(6-((2S,3R)-2-(6-cyclopropylimidazo[1,2-a]pyridin-2-yl)-3-hydroxypyrrolidin-1-yl)pyrimidin-4-yl)cyclopropane-1-carboxamide], the pEC50 was 5.22 to 6.00.
`C#Cc1cccc([C@H]2C[C@@H]2C(=O)Nc2cc(N3C[C@@H](O)C[C@@H]3c3cn4cc(C5CC5)ccc4n3)ncn2)c1` [Example 486, (1S,2S)-N-(6-((2R,4S)-2-(6-cyclopropylimidazo[1,2-a]pyridin-2-yl)-4-hydroxypyrrolidin-1-yl)pyrimidin-4-yl)-2-(3-ethynylphenyl)cyclopropane-1-carboxamide]: the pEC50 was 8.00 to 9.00.
As for `Cc1ccnc([C@H]2C[C@@H]2C(=O)Nc2cc(N[C@H](C)c3cn4cc(C(C)F)cc(N5CC(=O)N(C)C5=O)c4n3)ncn2)n1` (stereo partly drawn) [Example 530, (1S,2S)-N-(6-(((1R)-1-(6-(1-fluoroethyl)-8-(3-methyl-2,4-dioxoimidazolidin-1-yl)imidazo[1,2-a]pyridin-2-yl)ethyl)amino)pyrimidin-4-yl)-2-(4-methylpyrimidin-2-yl)cyclopropane-1-carboxamide], the pEC50 is greater than 9.00.
Turning to `Cc1ccnc([C@H]2C[C@@H]2C(=O)Nc2cc(N[C@H](C)c3cn4cc(C(C)(F)F)cc(N5CC(=O)N(C)C5=O)c4n3)ncn2)n1` [Example 531, (1S,2S)-N-(6-(((R)-1-(6-(1,1-difluoroethyl)-8-(3-methyl-2,4-dioxoimidazolidin-1-yl)imidazo[1,2-a]pyridin-2-yl)ethyl)amino)pyrimidin-4-yl)-2-(4-methylpyrimidin-2-yl)cyclopropane-1-carboxamide], the negative-log EC50 (pEC50) was greater than 9.00.
`Cc1ccnc([C@H]2C[C@@H]2C(=O)Nc2cc(N[C@H](C)c3cn4cc(C5CC5)cc(N5CC(=O)NC5=O)c4n3)nc(C)n2)n1` [Example 532, (1S,2S)-N-(6-(((R)-1-(6-cyclopropyl-8-(2,4-dioxoimidazolidin-1-yl)imidazo[1,2-a]pyridin-2-yl)ethyl)amino)-2-methylpyrimidin-4-yl)-2-(4-methylpyrimidin-2-yl)cyclopropane-1-carboxamide]: the pEC50 is greater than 9.00.
Take `Cc1ccnc([C@H]2C[C@@H]2C(=O)Nc2cc(N[C@H](C)c3cn4cc(C5CC5)cc(N5CC(=O)NC5=O)c4n3)ncn2)n1` [Example 533, (1S,2S)-N-(6-(((R)-1-(6-cyclopropyl-8-(2,4-dioxoimidazolidin-1-yl)imidazo[1,2-a]pyridin-2-yl)ethyl)amino)pyrimidin-4-yl)-2-(4-methylpyrimidin-2-yl)cyclopropane-1-carboxamide]: the pEC50 is greater than 9.00.
On to `Cc1ccnc([C@H]2C[C@@H]2C(=O)Nc2cc(NCc3cn4cc(C5CC5(F)F)cc(N5CC(=O)N(C)C5=O)c4n3)ncn2)n1` (stereo partly drawn) [Example 535, (1S,2S)-N-(6-(((6-(2,2-difluorocyclopropyl)-8-(3-methyl-2,4-dioxoimidazolidin-1-yl)imidazo[1,2-a]pyridin-2-yl)methyl)amino)pyrimidin-4-yl)-2-(4-methylpyrimidin-2-yl)cyclopropane-1-carboxamide], for which the pEC50 is greater than 9.00.
For the compound `Cc1ccnc([C@H]2C[C@@H]2C(=O)Nc2cc(N[C@H](C)c3cn4cc(C5CC5)cc(N5CCN(C)C5=O)c4n3)ncn2)n1` [Example 536, (1S,2S)-N-(6-(((R)-1-(6-cyclopropyl-8-(3-methyl-2-oxoimidazolidin-1-yl)imidazo[1,2-a]pyridin-2-yl)ethyl)amino)pyrimidin-4-yl)-2-(4-methylpyrimidin-2-yl)cyclopropane-1-carboxamide], the pEC50 is greater than 9.00.
As for `CCc1cc(N2CC(=O)N(C)C2=O)c2nc(CNc3cc(NC(=O)[C@H]4C[C@@H]4c4nccc(C)n4)nc(C)n3)cn2c1` [Example 537, (1S,2S)-N-(6-(((6-ethyl-8-(3-methyl-2,4-dioxoimidazolidin-1-yl)imidazo[1,2-a]pyridin-2-yl)methyl)amino)-2-methylpyrimidin-4-yl)-2-(4-methylpyrimidin-2-yl)cyclopropane-1-carboxamide], the pEC50 is greater than 9.00.
The value for `CCc1cc(N2CC(=O)N(C)C2=O)c2nc(CNc3cc(NC(=O)[C@H]4C[C@@H]4c4nccc(C)n4)ncn3)cn2c1` [Example 538, (1S,2S)-N-(6-(((6-ethyl-8-(3-methyl-2,4-dioxoimidazolidin-1-yl)imidazo[1,2-a]pyridin-2-yl)methyl)amino)pyrimidin-4-yl)-2-(4-methylpyrimidin-2-yl)cyclopropane-1-carboxamide] was greater than 9.00; that for `Cc1ccnc([C@H]2C[C@@H]2C(=O)Nc2cc(OCc3cn4c(N5CC(=O)N(C)C5=O)cc(C5CC5)cc4n3)ncn2)n1` [Example 554, (1S,2S)-N-(6-((7-cyclopropyl-5-(3-methyl-2,4-dioxoimidazolidin-1-yl)imidazo[1,2-a]pyridin-2-yl)methoxy)pyrimidin-4-yl)-2-(4-methylpyrimidin-2-yl)cyclopropane-1-carboxamide] was 6.00 to 7.00.
